Where no end group is shown, it is not given here.
Assays:
Format in all cases: biochemical
[1] = HORAC hydroxyl radical absorbance capacity (USTM 190), in tubo; parameters: HORAC: unit not given here; conditions: for HORAC/hydroxyl: Table II; for HORAC: Tables III-IX, unit not given
Description: (§1) In the course of the study, polypeptides were prepared by conventional synthesis methods and screened in tubo for antioxidant activity for peroxyl radicals (ROO.), superoxide radicals (O2.^−) and hydroxyl radicals (.OH).
(§2) In the screening standard testing for oxygen radical absorbance capacity (ORAC), hydroxyl radical absorbance capacity (HORAC), superoxide radical absorbance capacity (SORAC) and superoxide dismutase activity (SOD) were conducted with the test polypeptides. Testing was conducted according to USTM 190 (HORAC), USTM 191 (SORAC), USTM 192 (ORAC) and USTM 193 (SOAC) (SOD).
(§3) The peptides were tested in tubo for their antioxidant properties and tested against reference/known antioxidants. The evaluation of the antioxidant properties were conducted by determination of the ORAC (USTM 192), HORAC (USTM 190) and SOD (USTM 193) test methods.

[2] = SOD superoxide dismutase activity (USTM 193), in tubo; conditions: Table II; for SOD/superoxide, Active25: cells marked (Active25)
Description: as §2, §3

[3] = ORAC oxygen radical absorbance capacity (USTM 192), in tubo; parameters: ORAC: unit not given here; conditions: for ORAC/peroxyl: Table II; for ORAC: Tables III-IX, unit not given
Description: as §1, §2, §3

[4] = SORAC superoxide radical absorbance capacity (USTM 191), in tubo; conditions: Tables III-VIII; for SORAC: result in words; for SORAC (IC25): cells marked (IC25)
Description: Tables I to IX shown below are a compilation of polypeptides studied by the inventors to ascertain those elements of the molecular structure that contribute to or negate antioxidant activity. In the course of the study, polypeptides were prepared by conventional synthesis methods and screened in tubo for antioxidant activity for peroxyl radicals (ROO.), superoxide radicals (O2.^−) and hydroxyl radicals (.OH).
In the screening standard testing for oxygen radical absorbance capacity (ORAC), hydroxyl radical absorbance capacity (HORAC), superoxide radical absorbance capacity (SORAC) and superoxide dismutase activity (SOD) were conducted with the test polypeptides. Testing was conducted according to USTM 190 (HORAC), USTM 191 (SORAC), USTM 192 (ORAC) and USTM 193 (SOAC) (SOD). Upon review of the results as indicated in the Tables, the inventors have discovered certain elements of the polypeptide structure as recited in claim 1 that are key contributors to determination of antioxidant activity.

For `NCCC(=O)N[C@@H](Cc1c[nH]cn1)C(=O)O` [Carnosine, β-alanyl-histidine, reference compound], the HORAC/hydroxyl [1] was 2099 μmol GAE/g, the “SOD/superoxide, Active50” value [2] was 0 U/mg and the ORAC/peroxyl [3] was 354 μmol GAE/g.
With `O=C1O[C@H]([C@@H](O)CO)C(O)=C1O` [Vitamin C, reference compound] the HORAC/hydroxyl [1] was 0 μmol GAE/g, the “SOD/superoxide, Active50” value [2] was 752 U/mg and the ORAC/peroxyl [3] was 4456 μmol GAE/g.
With Ac-DESLESTRRM-NH2 [AC-SNP4] the HORAC [1] was “No capacity” and the ORAC [3] was “No capacity”.
For Ac-EELMSDIKK-NH2 [AC-SYN2], the HORAC [1] was “No capacity” and the ORAC [3] was “No capacity”.
In the case of Ac-EEMLERQRR-NH2 [AC-SNP3], the HORAC [1] is reported as “No capacity” and the ORAC [3] is reported as “No capacity”.
With Ac-EEMQRRKKK-NH2 [AC-SNP5] the HORAC [1] was “No capacity” and the ORAC [3] was “No capacity”.
With Ac-EEVKRK-NH2 [AC-SYN1] the HORAC [1] was “No capacity” and the ORAC [3] was “No capacity”.
With Ac-KKKEEMQRR-NH2 [AC-SNP7] the HORAC [1] was “No capacity” and the ORAC [3] was “No capacity”.
In the case of Ac-RRMLQLVEE-NH2 [AC-SNP1], the HORAC [1] is reported as “No capacity” and the ORAC [3] is reported as “No capacity”.
In the case of “Ac-Valérate-EEMQRRKKK-NH2 ({Ac-Valérate}-EEMQRRKKK-NH2; not fully specified; printed as Ac-Valérate-EEMQRRKKK-NH2) [AC-SNP6]”, the HORAC [1] is reported as “No capacity” and the ORAC [3] is reported as “No capacity”.
With Ac-wRyR-NH2 [RED27] the SORAC [4] was “No capacity” and the ORAC [3] was 5342.
For CWRYR-NH2 [RED11], the HORAC [1] was 625, the SORAC [4] was “No capacity” and the ORAC [3] was 2007.
HRHM [CP2.5] gave an HORAC [1] of 10192 and an ORAC [3] of 952.
With HWPY [S1] the “SORAC (IC25)” value [4] was 13(IC25) and the ORAC [3] was 5955.
In the case of HWRF [IMM1], the “SORAC (IC25)” value [4] is reported as 5(IC25) and the ORAC [3] is reported as 2422.
In the case of “HYHY [AO1, short chain polypeptide of the invention]”, the HORAC/hydroxyl [1] is reported as 33489 μmol GAE/g, the HORAC [1] is reported as 33489 and the “SOD/superoxide, Active25” value [2] is reported as 6 (Active25) U/mg. For the same molecule, the “SORAC (IC25)” value [4] was 6(IC25), the ORAC/peroxyl [3] was 4748 μmol GAE/g and the ORAC [3] was 4748.
In the case of KRKYWW-NH2 [RED2], the HORAC [1] is reported as 1063, the SORAC [4] is reported as “No capacity” and the ORAC [3] is reported as 1837.
RRH [CP2.6] gave an HORAC [1] of 41073.
With RRHM [CP2] the HORAC/hydroxyl [1] was 321448 μmol GAE/g, the HORAC [1] was 321448 and the “SORAC (IC25)” value [4] was 6(IC25). The ORAC/peroxyl [3] was 1204 μmol GAE/g and the ORAC [3] was 1204.
In the case of RYHM [AO2.1], the HORAC/hydroxyl [1] is reported as 132591 μmol GAE/g, the HORAC [1] is reported as 131574 and the ORAC/peroxyl [3] is reported as 5390 μmol GAE/g. The ORAC [3] was 5390.
In the case of “RYHW [AO2, short chain polypeptide of the invention]”, the HORAC/hydroxyl [1] is reported as 41882 μmol GAE/g, the HORAC [1] is reported as 41882 and the “SOD/superoxide, Active25” value [2] is reported as 4 (Active25) U/mg. The “SORAC (IC25)” value [4] was 4(IC25), the ORAC/peroxyl [3] was 9328 μmol GAE/g and the ORAC [3] was 9328.
With RwRyR-NH2 [RED26] the SORAC [4] was “No capacity” and the ORAC [3] was 4461.
For RyR-NH2 [RED32], the SORAC [4] was “No capacity” and the ORAC [3] was 3385.
In the case of WKYK-NH2 [RED25], the HORAC [1] is reported as 2476, the SORAC [4] is reported as “No capacity” and the ORAC [3] is reported as 4168.
In the case of “WRYR (not fully specified (C-terminus)) [RED23]”, the HORAC [1] is reported as 2089, the SORAC [4] is reported as “No capacity” and the ORAC [3] is reported as 4091.
With WRYR-NH2 [RED6] the HORAC [1] was 1548, the SORAC [4] was “No capacity” and the ORAC [3] was 4488.
With WRYr-NH2 [RED19] the HORAC [1] was 1457, the SORAC [4] was “No capacity” and the ORAC [3] was 4350.
With WRyR-NH2 [RED21] the HORAC [1] was 2472, the “SORAC (IC25)” value [4] was 7(IC25) and the ORAC [3] was 4816.
In the case of WrYR-NH2 [RED20], the HORAC [1] is reported as 1666, the SORAC [4] is reported as “No capacity” and the ORAC [3] is reported as 4448.
With WrYr-NH2 [RED18] the HORAC [1] was 2982, the SORAC [4] was “No capacity” and the ORAC [3] was 4758.
With YHFR [IMM2] the HORAC [1] was 3036 and the “SORAC (IC25)” value [4] was 5(IC25).
With YWPW [S2] the SORAC [4] was “No capacity” and the ORAC [3] was 5917.
Molecule YkYkYk [RED34] has an HORAC [1] of 1053 and an ORAC [3] of 355.
In the case of fkwR-NH2 [RED9], the HORAC [1] is reported as 752, the SORAC [4] is reported as “No capacity” and the ORAC [3] is reported as 2202.
With kfRw-NH2 [RED7] the HORAC [1] was 1124, the SORAC [4] was “No capacity” and the ORAC [3] was 2120.
With wRYR-NH2 [RED24] the HORAC [1] was 2225, the SORAC [4] was “No capacity” and the ORAC [3] was 4077.
With wRwR-NH2 [RED31] the SORAC [4] was “No capacity” and the ORAC [3] was 4652.
In the case of wRyR-NH2 [RED22], the HORAC [1] is reported as 1686, the SORAC [4] is reported as “No capacity” and the ORAC [3] is reported as 5383.
In the case of wRyRw-NH2 [RED29], the SORAC [4] is reported as “No capacity” and the ORAC [3] is reported as 5512.
With wRyRy-NH2 [RED28] the “SORAC (IC25)” value [4] was 3(IC25) and the ORAC [3] was 5216.
